Source: US20230146096A1, “USE OF VIDOFLUDIMUS FOR THE TREATMENT OF CORONAVIRUS INFECTIONS” (INSERM (Institut National de la Santé et de la Recherche …, priority 2020, published 2023)
Read-outs that look alike come from different tables or passages of the source.

Test system: SARS-CoV-2 strain BavPat1
Assay: Determination of EC50 and EC90: inhibition of SARS-CoV-2 viral RNA replication in Vero E6 cells (RT-qPCR)
Assay type: cell-based
Settings: for EC50: Severe acute respiratory syndrome coronavirus 2, Vero C1008, 48 h, read-out: EC50 (compound concentration required to inhibit viral RNA replication by 50%)

Row | Compound | EC50 [µM] | EC50 (Vero E6 cells, MOI 0.002, 2 days at 37° C., viral RNA in supernatant, logarithmic interpolation) [µM] | effect on replication of SARS-CoV-2 (Vero E6 cells, two days of culture)
1 | CCC(CC)COC(=O)[C@H](C)N[P@](=O)(OC[C@H]1O[C@@](C#N)(c2ccc3c(N)ncnn23)[C@H](O)[C@@H]1O)Oc1ccccc1 [remdesivir] | 6.65 |  | 
2 | COc1cccc(-c2ccc(NC(=O)C3=C(C(=O)O)CCC3)c(F)c2)c1 [Vidofludimus, 2-[[2-fluoro-4-(3-methoxyphenyl)phenyl]carbamoyl]cyclopentene-1-carboxylic acid] |  | 23.1 | can repress the replication of SARS-CoV-2 in a significant manner
